Consider 3 compounds from paper PMC9030827, “In Vitro Effects of Mitochondria-Targeted Antioxidants in a Small-Cell Carcinoma of the Ovary of Hypercalcemic Type and in Type 1 and Type 2 Endometrial Cancer” (Biomedicines, 2022).

Assay [1] relates to COV434 cells. Briefly: MTT cell viability assay. As to conditions: Homo sapiens. It is filed as cell-based. The protocol:
(§1) Experiments were performed using the following cell lines: Ishikawa, Hec50co, COV434, and HFF-1. The Ishikawa cell line (RRID: CVCL_2529) was established from an endometrial adenocarcinoma. The Hec50co cell line (RRID: CVCL_4Y59) consists of poorly differentiated endometrial tumor cells isolated from a patient with advanced disease. Both the Ishikawa and Hec50co cell lines were kindly provided by Dr. Kim K. Leslie (The University of New Mexico Health Sciences Center, Albuquerque, NM, USA). COV434 (RRID: CVCL_2010) were initially isolated from a patient diagnosed with a granulosa cell tumor but were recently classified as cells from a small-cell carcinoma of the ovary, hypercalcemic type.The COV434 cells were purchased from the European Collection of Authenticated Cell Cultures (ECACC) (#07071909). HFF-1 (RRID: CVCL_3285) is an immortalized human foreskin fibroblasts cell line, obtained from the American Type Culture Collection (ATCC), which was used as control, as they are non-tumorous cells. The Ishikawa and Hec50co cells were maintained in Dulbecco’s Modified Eagle Medium/F12 (DMEM/F12) supplemented with 5% Foetal Bovine Serum (FBS). COV434 cells were maintained in DMEM/F12 supplemented with 10% FBS. HFF-1 were maintained in Roswell Park Memorial Institute 1640 (RPMI 1640) supplemented with 10% FBS. All mediums were supplemented with 1% AB-AM and all cells were kept at 37 °C with 5% CO2. The treatment with the compounds was done in the respective cell medium supplemented with 2% FBS and 24 h after platting the cells in the culture medium with 5% FBS to allow their adherence.
(§2) The Ishikawa, Hec50co, COV434, and HFF-1 cell lines were plated at a density of 5 × 10^4 cells/well in transparent 96-well plates. After 24 h, the cells were treated with Mito6_TPP, Mito6_picol., or Mito6_isoq. (0.01–100 μM) and incubated at 37 °C with 5% CO2 for 24, 48, or 72 h. […] The conditions of the methylthiazolyldiphenyl-tetrazolium bromide (MTT) assay were adapted from the work of Banerjee et al.. Briefly, MTT was added to a final concentration of 0.5 mg/mL, and the cells were incubated for 3 h at 37 °C with 5% CO2. After the 3 h, purple MTT formazan crystals were dissolved by agitation for 15 min in a solution of DMSO/isopropanol (ratio 3:1) and quantified spectrophotometrically at 540 nm. The neutral red (NR) assay conditions were based on the work developed by Repetto et al.. Briefly, after the incubation time, cells were incubated with NR at 40 μg/mL in an FBS-free cell medium for 3 h. The cells were then incubated with a solution of 50% ethanol (96% v/v), 49% deionized water, and 1% glacial acetic acid, with shaking for 15 min. The NR extracted from the cells was measured at 540 nm. The LDH cytotoxicity assay was not performed on the HFF-1 cells due to the lack of evidence of cell death at the concentrations tested. After the incubation time, this assay was performed using a Thermo Scientific Pierce LDH Cytotoxicity Assay Kit according to the manufacturer’s instructions. For all assays, the absorbance was read using a BioTek Synergy HTX Multi-Mode Microplate Reader equipped with BioTek Gen5 Data Collection and Analysis Software (BioTek Instruments, Winooski, VT, USA).
(§3) Data were evaluated using the one- or two-way analysis of variance (ANOVA) test followed by Bonferroni’s test for multiple comparisons. The data presented was expressed as mean ± SEM (Standard Error of the Mean) of a minimum of three and a maximum of seven independent experiments performed in triplicate. Values of p < 0.05 were considered statistically significant. Half of the maximal effective concentration (EC50) values were estimated by interpolation of dose-response curves and reported as a mean with a 95% confidence interval (CI 95%). All statistical analysis was performed using GraphPad Prism Software 8.0 (GraphPad Software, Inc., San Diego, CA, USA). […]

In assay [2] the test system is Ishikawa cells. The assay is described as follows: MTT cell viability assay. The format is cell-based. As to conditions: Homo sapiens. On the procedure: as §1, §2, §3
The subject of assay [3] is Hec50co cells. Briefly: MTT cell viability assay. The format is cell-based. As to conditions: Homo sapiens. The protocol: as §1, §2, §3
(Tetrazolium assays rely on reduction of a dye to a coloured formazan, in cell work by metabolically active cells.)

Another assay deals with HFF-1 cells. The assay is described as follows: MTT cell viability assay. It is filed as cell-based. As to conditions: Homo sapiens. On the procedure:
as §1, §2, §3

Assay [4] deals with COV434 cells. The assay is described as follows: Mitochondrial membrane potential (Δψm) assessment, DiOC6 probe. The following applies: COV434, 48 h; 5 μM Mito6_TPP, 20 μM Mito6_picol., 10 μM Mito6_isoq. The format is cell-based, human. On the procedure:
(§4) The Ishikawa, Hec50co, COV434, and HFF-1 cell lines were plated at a density of 5 × 10^4 cells/well in black 96-well plates. After 24 h, the cells were treated with Mito6_TPP (5 μM), Mito6_picol. (20 μM), or Mito6_isoq. (10 μM) and incubated at 37 °C with 5% CO2 for 48 h. The Δψm study was adapted from the work of Sivandzade et al.. The mitochondrial membrane-depolarizing agent carbonyl cyanide m-chlorophenylhydrazone (CCCP) (50 μM) was used as the positive control, being added to the cells for 20 min prior to the addition of the probe DiOC6 (100 nM) for 30 min at 37 °C in the dark. The fluorescence was then measured using a BioTek Synergy HTX Multi-Mode Microplate Fluorimeter equipped with BioTek Gen5 Data Collection and Analysis Software (BioTek Instruments, Winooski, VT, USA) (excitation: 488 nm; emission: 525 nm).

For assay [5], the system named is Ishikawa cells. The description is as above. It is filed as cell-based, human. The following applies: 48 h, 5 μM Mito6_TPP, 20 μM Mito6_picol., 10 μM Mito6_isoq. On the procedure:
as §4

The subject of assay [6] is Hec50co cells. Described as above. It is filed as cell-based, human. As to conditions: 48 h, 5 μM Mito6_TPP, 20 μM Mito6_picol., 10 μM Mito6_isoq. On the procedure: as §4
[7] abbreviates: COV434, 24 hours of incubation, read-out: EC50 (decrease of viability), MTT assay.
Setting [8] is: COV434, 48 h of incubation, read-out: EC50 (decrease of viability), MTT Assay.
Setting [9] is: COV434, 72 hours of incubation, read-out: EC50 (decrease of viability), MTT assay.
[10] abbreviates: 24 h, read-out: EC50 (decrease of viability), MTT assay.
[11] abbreviates: 48 h, read-out: EC50 (decrease of viability), MTT Assay.
The mark [12] stands for this setting: 72 h, read-out: EC50 (decrease of viability), MTT assay.
[13] abbreviates: 24 hours of incubation, read-out: EC50 (decrease of viability), MTT assay.
The mark [14] stands for this setting: 48 h of incubation, read-out: EC50 (decrease of viability), MTT Assay.
The mark [15] stands for this setting: 72 hours of incubation, read-out: EC50 (decrease of viability), MTT assay.
[16] abbreviates: Hec50co, 24 hours of incubation, read-out: EC50 (decrease of viability), MTT assay.
[17] abbreviates: Hec50co, 48 h of incubation, read-out: EC50 (decrease of viability), MTT Assay.
[18] abbreviates: Hec50co, 72 hours of incubation, read-out: EC50 (decrease of viability), MTT assay.
Setting [19] is: HFF-1, 48 h of incubation, read-out: EC50 (decrease of viability), MTT Assay.

Like-named read-outs stand apart in the source and are kept apart here.

As usually defined, the EC50 is the concentration at which the effect is half-maximal.

Take `O=C(/C=C/c1ccc(O)c(O)c1)NCCCCCCCCCC[P+](c1ccccc1)(c1ccccc1)c1ccccc1` [Mito6_TPP]: the EC50 in the assay on COV434 cells [1] (setting [7]) stood at 4.64 µM; in the assay with COV434 cells [1] (setting [8]) it was 2.37 µM; in the assay on COV434 cells [1] (setting [9]), 0.577 µM; in the assay with Ishikawa cells [2] (setting [10]), 9.14 µM; in the assay with Ishikawa cells [2] (setting [11]), 2.45 µM; in the assay with Ishikawa cells [2] (setting [12]), 0.925 µM. The EC50 is 7.75 µM with Hec50co cells [3] (setting [10]); 1.87 µM in the assay with Hec50co cells [3] (setting [11]); 0.847 µM in the assay with Hec50co cells [3] (setting [12]); above 100 µM with HFF-1 cells (HFF-1, 24 h, read-out: EC50 (decrease of viability), MTT assay); 44.5 µM in the assay with HFF-1 cells (HFF-1, 48 h, read-out: EC50 (decrease of viability), MTT Assay); 37 µM in the assay with HFF-1 cells (HFF-1, 72 h, read-out: EC50 (decrease of viability), MTT assay). Besides, the “Mitochondrial membrane potential (Δψm) change vs untreated cells” value in the assay on COV434 cells [4], with Ishikawa cells [5] and in the assay with Hec50co cells [6] was “significant decrease” in each case.
Regarding `O=C(/C=C/c1ccc(O)c(O)c1)NCCCCCCCCCC[n+]1ccc2ccccc2c1` [Mito6_isoq.], the EC50 in the assay on COV434 cells [1] (setting [7]) came out at 29.5 µM; in the assay with COV434 cells [1] (setting [8]), 7.16 µM; in the assay on COV434 cells [1] (setting [9]), 3.16 µM; in the assay with Ishikawa cells [2] (setting [13]), 29.9 µM; in the assay on Ishikawa cells [2] (setting [14]), 15.4 µM; in the assay with Ishikawa cells [2] (setting [15]), 7.16 µM. For the same compound, the EC50 is 19 µM in the assay on Hec50co cells [3] (setting [16]), 9.55 µM with Hec50co cells [3] (setting [17]), 6.59 µM with Hec50co cells [3] (setting [18]) and above 100 µM with HFF-1 cells (setting [19]). Moreover, the “Mitochondrial membrane potential (Δψm) change vs untreated cells” value with COV434 cells [4], in the assay on Ishikawa cells [5] and with Hec50co cells [6] was “significant decrease” throughout.
With `Cc1cc[n+](CCCCCCCCCCNC(=O)/C=C/c2ccc(O)c(O)c2)cc1` [Mito6_picol.], the EC50 was found to be 53.2 µM in the assay with COV434 cells [1] (setting [7]); 15.9 µM with COV434 cells [1] (setting [8]); 6.6 µM with COV434 cells [1] (setting [9]); 42.9 µM in the assay on Ishikawa cells [2] (setting [13]); 23.6 µM with Ishikawa cells [2] (setting [14]); 10.8 µM with Ishikawa cells [2] (setting [15]). The EC50 with Hec50co cells [3] (setting [16]) was 27.3 µM; in the assay on Hec50co cells [3] (setting [17]) it was 13.8 µM; in the assay with Hec50co cells [3] (setting [18]) it was 17.2 µM; in the assay on HFF-1 cells (setting [19]) it was above 100 µM. In addition, the “Mitochondrial membrane potential (Δψm) change vs untreated cells” value is “decrease” in the assay on COV434 cells [4]; “decrease” in the assay with Ishikawa cells [5]; “decrease only in the Ishikawa and COV434 cells” with Hec50co cells [6].
